Here are results for 1 compound from US6486326B2, “iso-CBI and iso-CI analogs of CC-1065 duocarmycins” (The Scripps Research Institute, priority 1997, dated 2002).

Several values for one entry are separate records, joined by “and”; a condition that tells them apart may be missing. Identical values can stand only once.

Experiment [1] concerns w794 DNA (SV40 DNA segment, 144 bp). The experiment in a line: DNA alkylation selectivity and efficiency, thermally-induced strand cleavage of w794 DNA. Format: biochemical. On the procedure: FIG. 5 illustrates thermally-induced strand cleavage of w794 DNA (SV40 DNA segment, 144 bp, nucleotide nos. 138-5238); DNA-agent incubation for 24 hours at 25° C., removal of unbound agent and 30 minutes of thermolysis (100° C.), followed by denaturing 8% PAGE and autoradiography, lane 1, control DNA; lanes 2-5, Sanger G, C, A, and T sequencing reactions; lanes 6-7 (−)-iso-CBI-TMI (1×10^−3 and 1×10^−4 M); lanes 8-9, (+)-CBI-TMI (1×10^−5 and 1×10^−4 M); lanes 10-11, (+)-duocarmycin SA (1×10^−5 and 1×10^−6).
FIG. 7 illustrates thermally-induced strand cleavage of w794 DNA (SV40 DNA segment, 144 bp, nucleotide nos. 138-5238); DNA-agent incubation for 24 h at 25° C., removal of unbound agent and 30 min of thermolysis (100° C.), followed by denaturing 8% PAGE and autoradiography; lane 1, control DNA; lanes 2-5, Sanger G, C, A, and T sequencing reactions; lanes 6-8 (+)-duocarmycin SA (1×10^−4 to 1×10^−6 M); lanes9-11, seco-iso-CI-TMI (1×10^−3 to 1×10^−5 M).
DNA Alkylation Selectivity and Efficiency: The DNA alkylation properties of the agents were examined within w794 and w836 duplex DNA for which comparative results are available for related agents. (Boger, D. L., et al., J. Am. Chem. Soc. 1994, 116, 11335; Boger, D. L., et al., J. Am. Chem. Soc. 1994, 116, 6461; and Boger, D. L., et al., J. Am. Chem. Soc. 1995, 117, 11647) The alkylation site identification and the assessment of the relative selectivity among the available sites were obtained by thermally-induced strand cleavage of the singly 5′ end-labeled duplex DNA after exposure to the agents. Following treatment of the end-labeled duplex DNA with a range of agent concentrations and temperatures in the dark, the unbound agent was removed by EtOH precipitation of the DNA Redissolution of the DNA in aqueous buffer, thermolysis (100° C., 30 min) to induce strand cleavage at the sites of DNA alkylation, denaturing high-resolution polyacrylamide gel electrophoresis (PAGE) adjacent to Sanger dideoxynucleotide sequencing standards, and autoradiography led to identification of the DNA cleavage and alkylation sites. The full details of this procedure have been disclosed elsewhere. (Boger, D. L., et al., Tetrahedron 1991, 47, 2661.)
DNA Alkylation Studies: Selectivity and Efficiency: Eppendorf tubes containing singly ^32p 5′-end-labeled double-stranded DNA (9 μL) (Boger, D. L., et al., Tetrahedron 1991, 47, 2661.) in TE buffer (10 mM Tris, 1 mM EDTA, pH 7.5) were treated with the agents in DMSO (1 μL, at the specified concentrations). The solutions were mixed by vortexing and brief centrifugation and subsequently incubated at 4° C., 25° C. or 37° C. for 24-72 h. […]

The test system of experiment [2] is calf thymus DNA. The experiment in a line: Calf thymus DNA alkylation, quantitation of adenine N3 adduct. Type of experiment: biochemical. As to conditions: for conversion to thermally released adenine adduct 66: 4° C., 72 h, ca. 150 bp, then 100° C., 30 min, pH 7.0, four runs. The method, then:
This was addressed through a study of the alkylation of calf thymus DNA. Optimized conditions for the alkylation were established for (−)-44 on an analytical scale (100 μg of agent). For this purpose, the long-wavelength UV absorption of the agent and the adduct provided a useful quantitative measure of the adenine adduct, unreacted starting material and any side products (solvolysis or rearrangement), Table 3. Analytical HPLC analysis was used to confirm the identity of the products through correlation of retention times and UV spectral data with authentic materials. The preparative DNA alkylation reaction and subsequent isolation of (+)-66 was carried out under conditions determined to provide complete consumption of the agent in the presence of a large excess of DNA Thus, extraction (EtOAc) of the aqueous buffer solution containing calf thymus DNA following alkylation (4° C., 72 h, 150 bp) afforded no recovered (−)-44, and only a small amount (<5%) of the rearranged product 65. Conducting the reaction at 4° C. in the presence of a large excess of DNA precluded competitive solvolysis. Thermal treatment of the alkylated DNA in aqueous 10 mM sodium phosphate buffer (100° C., 30 min, pH 7.0) followed by EtOAc extraction provided 66 in 90-95% conversion, ≧95% purity (by HPLC). Repeating this thermal treatment provided little or no additional adduct. No trace of a competing guanine adduct could be detected. This high conversion to a single adduct established that 44 participates exclusively in the adenine N3 alkylation reaction under the conditions examined.

As for `COc1cc2cc(C(=O)N3CC4CC45C(=O)c4ccccc4C=C35)[nH]c2c(OC)c1OC` (single isomer, unassigned; (-)) [(−)-iso-CBI-TMI, 2-[(5,6,7-Trimethoxyindol-2-yl)carbonyl]-1,2,9,9a-tetrahydrocyclopropa[c]benzo[f]indol-8-one], in experiment [1], the “DNA alkylation sequence selectivity compared with (+)-duocarmycin SA” value is given as “same sequence selectivity”. Besides, the “DNA alkylation efficiency, less efficient than (+)-CBI-TMI and (+)-duocarmycin SA” value in experiment [1] (24 h, 25° C.) was 50-100 ×. The “conversion to thermally released adenine adduct 66” value in experiment [2] was 95% and 90-95%; in experiment [2] (listed as (−)-44), 90-95%. In addition, in experiment [2] (in the presence of duplex DNA), the “consumption of the agent accounted for by adenine N3 addition” value is recorded as 90-100%.
